Holding throughout (assay type): cell-based
Holding throughout (conditions): twenty-four hours after inoculation, combination assay

In experiment [1] the test system is methicillin-resistant Staphylococcus aureus (MRSA). Kind of experiment: In vitro growth inhibition on sheep blood agar (SBA) plates. How it is done: (§1) In vitro testing was conducted to measure the efficacy of WT13-12 at inhibiting the growth of clinically relevant bacteria. […] WT13-12 was streaked across half of a sheep blood agar (SBA) plate and allowed to dry for 15 minutes. The other side was streaked with the vehicle but not containing WT13-12. After drying, 50 μL of purified bacteria at 100,000 col/mL was streaked onto the control and treated sides of the sheep blood agar plates. After streaking, the plates were incubated at 37° C. for 48 hours. Growth was assessed at 24 and 48 hours post-inoculation. Percent inhibition was determined by measuring the treated side vs. the control side with the control side set at 100% growth.
(§2) Each component of WT13-12 was tested individually or in paired combination in the in vitro bacterial growth inhibition assay described above to determine the relative contribution of each component.

For experiment [2], the system named is Streptococcus agalactiae (Group B beta strep). As to the kind of experiment: In vitro growth inhibition on SBA plates. How it is done:
as §1, §2

The test system of experiment [3] is Streptococcus pyogenes (Group A beta hemolytic strep). Kind of experiment: In vitro growth inhibition on SBA plates. How it is done: as §1, §2

Consider `N=C(N)NCCC[C@H](N)C(=O)O` [L-Arginine], for which the “growth inhibition of MRSA versus control” value in experiment [1] was “no effect”.

Consider `C=CCCCCCCCCC(=O)O` [undecylenic acid], for which the “growth inhibition of MRSA versus control” value in experiment [1] is on record as “no effect”. Further, in experiment [2], the “growth inhibition of S. agalactiae versus control” value is given as “significant effect”. Further, the “growth inhibition of S. pyogenes versus control” value in experiment [3] is “significant inhibitory effects”.

(Values after patent US10195242B2, “Therapeutic compounds” (Wintermute Biomedical, Inc., priority 2013, dated 2019).)
